Reference: patent US20250215029A1 (Recludix Pharma, Inc., priority 2022, published 2025)

biological target: T1, pY705-STAT3 in PBMC (Homo sapiens, UniProt P40763); assay: MSD-pSTAT-PBMC Assay (pSTAT3, IL-6 stimulated); assay type: cell-based; conditions: PBMC, compound 3 hrs, then 10 ng/mL IL-6 for 10 min; Table 115; read-out: STAT3
T1 construct: Cryopreserved Peripheral Blood Mononuclear Cells (PBMC) are from AllCells; host or cells: cryopreserved PBMC
How it was run: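 Human PBMCs were pretreated with compound for 3 h, then stimulated with 10 ng/mL IL-6 for 10 min. Lysate pY705-STAT3 was measured by MSD sandwich immunoassay (anti-STAT3 capture) and corrected for unstimulated background. Signal was normalized to DMSO, and IC50 came from variable-slope regression.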

T1 sequence (P40763 whole entry): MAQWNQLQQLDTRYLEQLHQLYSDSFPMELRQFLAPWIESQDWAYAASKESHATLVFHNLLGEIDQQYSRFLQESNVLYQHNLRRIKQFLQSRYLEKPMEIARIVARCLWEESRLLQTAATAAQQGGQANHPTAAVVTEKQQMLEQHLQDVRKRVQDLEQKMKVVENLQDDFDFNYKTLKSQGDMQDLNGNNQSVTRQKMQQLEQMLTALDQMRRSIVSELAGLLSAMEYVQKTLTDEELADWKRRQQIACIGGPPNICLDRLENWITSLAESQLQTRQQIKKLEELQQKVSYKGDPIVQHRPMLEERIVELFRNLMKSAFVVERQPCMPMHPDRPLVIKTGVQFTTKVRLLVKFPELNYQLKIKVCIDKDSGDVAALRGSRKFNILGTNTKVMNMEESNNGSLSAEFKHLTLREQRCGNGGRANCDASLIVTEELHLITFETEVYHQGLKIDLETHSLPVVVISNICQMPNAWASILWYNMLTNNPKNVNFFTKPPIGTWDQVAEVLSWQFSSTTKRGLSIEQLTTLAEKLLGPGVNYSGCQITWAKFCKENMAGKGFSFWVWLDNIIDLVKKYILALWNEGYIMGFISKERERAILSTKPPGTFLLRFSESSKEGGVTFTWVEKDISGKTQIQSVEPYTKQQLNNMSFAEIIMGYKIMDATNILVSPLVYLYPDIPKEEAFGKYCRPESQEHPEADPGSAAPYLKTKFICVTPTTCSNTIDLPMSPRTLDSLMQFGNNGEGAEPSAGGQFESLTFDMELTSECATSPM

Question: Which IC50 does the source give for `CCCOC(=O)[C@H](C)NP(=O)(Oc1ccccc1)C(F)c1ccc2sc(C(=O)N[C@H]3CCC[C@H]4CC[C@@H](C(=O)N5CC6(C5)OCc5ccncc56)N4C3=O)cc2c1` (stereo partly drawn) [Compound 952, propyl ((fluoro(2-(((3S,6S,9aS)-5-oxo-3-(1′H-spiro [azetidine-3,3′-furo[3,4-c]pyridine]-1-carbonyl)octahydro-1H-pyrrolo[1,2-a]azepin-6-yl)carbamoyl)benzo [b]thiophen-5-yl)methyl) (phenoxy)phosphoryl)-L-alaninate] here?
Answer: 100 to 1000 nM

Question: `CC[C@@H](C)OC(=O)[C@H](C)NP(=O)(Cc1ccc2sc(C(=O)N[C@H]3CCC[C@H]4CC[C@@H](C(=O)N5CC(c6cccnc6)C5)N4C3=O)cc2c1)Oc1ccccc1` (stereo partly drawn) [Compound 1016, (R)-sec-butyl (((2-(((3S,6S,9aS)-5-oxo-3-(3-(pyridin-3-yl)azetidine-1-carbonyl)octahydro-1H-pyrrolo[1,2-a]azepin-6-yl)carbamoyl)benzo [b]thiophen-5-yl)methyl)(phenoxy)phosphoryl)-L-alaninate] was tested. Which IC50 did it give?
Answer: 100 to 1000 nM

Question: Which IC50 does the source give for `CCCOC(=O)[C@H](C)NP(=O)(Cc1ccc2sc(C(=O)N[C@H]3CC(C)C[C@H]4CC[C@@H](C(=O)N5CC(c6cnccc6C)C5)N4C3=O)cc2c1)Oc1ccccc1` (stereo partly drawn) [Compound 251, propyl (((2-(((3S,6S,9aR)-8-methyl-3-(3-(4-methylpyridin-3-yl)azetidine-1-carbonyl)-5-oxooctahydro-1H-pyrrolo[1,2-a]azepin-6-yl)carbamoyl)benzo [b]thiophen-5-yl)methyl)(phenoxy)phosphoryl)-L-alaninate] here?
Answer: < 100 nM

Question: `COc1ccncc1C1CN(C(=O)[C@@H]2CC[C@@H]3CCC[C@H](NC(=O)c4cc5cc([C@H](F)[P@@](=O)(N[C@@H](C)C(=O)OC(C)C)Oc6ccccc6)ccc5s4)C(=O)N32)C1` (single isomer, unassigned) [Compound 1052] was tested. Which IC50 did it give?
Answer: 100 to 1000 nM

Question: `CCCOC(=O)[C@H](C)NP(=O)(Oc1ccccc1)C(F)c1ccc2sc(C(=O)N[C@H]3CCCC[C@H]4CC[C@@H](C(=O)N[C@H]5CN(C(N)=O)C[C@@H]5F)N4C3=O)cc2c1` (stereo partly drawn) [Compound 958, propyl (((2-(((3S,6S,10aS)-3-(((3S,4S)-1-carbamoyl-4-fluoropyrrolidin-3-yl)carbamoyl)-5-oxodeca-hydropyrrolo [1,2-a]azocin-6-yl)carbamoyl)benzo [b]thiophen-5-yl)fluoromethyl) (phenoxy)phosphoryl)-L-alaninate] was tested. Which IC50 did it give?
Answer: 1000 to 3000 nM

Question: How did the IC50 turn out when `COc1ccncc1C1CN(C(=O)[C@@H]2CC[C@@H]3CCC[C@H](NC(=O)c4cc5cc([C@@H](F)[P@](=O)(N[C@@H](C)C(=O)OCC(C)(C)C)Oc6ccccc6)ccc5s4)C(=O)N32)C1` (single isomer, unassigned) [Compound 1056] was run?
Answer: < 100 nM

Question: Which IC50 does the source give for `CCCOC(=O)[C@H](Cc1ccccn1)NP(=O)(Cc1ccc2sc(C(=O)N[C@H]3CCC[C@H]4CC[C@@H](C(=O)N5CC(c6cccnc6)C5)N4C3=O)cc2c1)Oc1ccccc1` (stereo partly drawn) [Compound 432, propyl (2S)-2-((((2-(((3S,6S,9aS)-5-oxo-3-(3-(pyridin-3-yl)azetidine-1-carbonyl)octahydro-1H-pyrrolo[1,2-a]azepin-6-yl)carbamoyl)benzo [b]thiophen-5-yl)methyl)(phenoxy)phosphoryl)amino)-3-(pyridin-2-yl)propanoate] here?
Answer: 100 to 1000 nM

Question: Which IC50 does the source give for `Cc1ccncc1C1CN(C(=O)[C@@H]2CC[C@@H]3CCC[C@H](NC(=O)c4cc5cc(C(F)(F)P(=O)(OCCSC(=O)C(C)(C)C)OCCSC(=O)C(C)(C)C)ccc5s4)C(=O)N32)C1` [Compound 968, S,S′-((((difluoro(2-(((3S,6S,9aS)-3-(3-(4-methylpyridin-3-yl)azetidine-1-carbonyl)-5-oxooctahydro-1H-pyrrolo[1,2-a]azepin-6-yl)carbamoyl)benzo [b]thiophen-5-yl)methyl)phosphoryl)bis(oxy))bis(ethane-2,1-diyl))bis(2,2-dimethyl-propanethioate)] here?
Answer: < 100 nM

Question: For `O=C(N[C@H]1CCC[C@H]2CC[C@@H](C(=O)N3CC(c4cccnc4)C3)N2C1=O)c1cc2cc(CP(=O)(N[C@H]3CCOC3=O)Oc3ccccc3)ccc2s1` (stereo partly drawn) [Compound 398, phenyl P-((2-(((3S,6S,9aS)-5-oxo-3-(3-(pyridin-3-yl)azetidine-1-carbonyl)octahydro-1H-pyrrolo[1,2-a]azepin-6-yl)carbamoyl)benzo [b]thiophen-5-yl)methyl)-N-((S)-2-oxotetrahydrofuran-3-yl)phosphonamidate], which IC50 is on record?
Answer: > 3000 nM

Question: Which IC50 does the source give for `CCCOC(=O)[C@H](C)NP(=O)(Oc1ccccc1)[C@@H](F)c1ccc2sc(C(=O)N[C@H]3CCC[C@H]4CC[C@@H](C(=O)N5CC(c6cncnc6N(C)C)C5)N4C3=O)cc2c1` (stereo partly shown) [Compound 1069] here?
Answer: < 100 nM

Question: For `CC(C)CC(=O)SCCOP(=O)(OCCSC(=O)CC(C)C)C(F)(F)c1ccc2sc(C(=O)N[C@H]3CCC[C@H]4CC[C@@H](C(=O)N5CC(c6nncn6C)C5)N4C3=O)cc2c1` [Compound 966, S,S′-((((difluoro(2-(((3S,6S,9aS)-3-(3-(4-methyl-4H-1,2,4-triazol-3-yl)azetidine-1-carbonyl)-5-oxooctahydro-1H-pyrrolo[1,2-a]azepin-6-yl)carbamoyl)benzo [b]thiophen-5-yl)methyl)phosphoryl)bis(oxy))bis(ethane-2,1-diyl)) bis(3-methylbutanethioate)], which IC50 is on record?
Answer: < 100 nM

Question: How did the IC50 turn out when `CCCOC(=O)[C@H](C)NP(=O)(Cc1ccc2sc(C(=O)N[C@H]3CCC[C@H]4CC[C@@H](C(=O)N5CC(c6cnccc6C)C5)N4C3=O)cc2c1)Oc1ccccc1` (stereo partly drawn) [Compound 951, propyl (((2-(((3S,6S,9aS)-3-(3-(4-methylpyridin-3-yl)azetidine-1-carbonyl)-5-oxooctahydro-1H-pyrrolo[1,2-a]azepin-6-yl)carbamoyl)benzo [b]thiophen-5-yl)methyl) (phenoxy)phosphoryl)-L-alaninate] was run?
Answer: < 100 nM

Question: Which IC50 does the source give for `CCCOC(=O)[C@H](C)N[P@](=O)(Oc1ccccc1)[C@H](F)c1ccc2sc(C(=O)N[C@H]3CCC[C@H]4CC[C@@H](C(=O)N5CC(c6cnccc6N6CCOCC6)C5)N4C3=O)cc2c1` (single isomer, unassigned) [Compound 1044] here?
Answer: < 100 nM

Question: For `CCCOC(=O)[C@H](C)N[P@@](=O)(Oc1ccccc1)[C@@H](F)c1ccc2sc(C(=O)N[C@H]3C[C@H](C)C[C@H]4CC[C@@H](C(=O)N5CC(c6cnccc6OC)C5)N4C3=O)cc2c1` (single isomer, unassigned) [Compound 1041], which IC50 is on record?
Answer: < 100 nM

Question: `CCCOC(=O)[C@H](C)NP(=O)(Cc1ccc2sc(C(=O)N[C@H]3CCC[C@H]4CC[C@@H](C(=O)N5CC(c6cncnc6N6CC[C@H]6COC)C5)N4C3=O)cc2c1)Oc1ccccc1` (stereo partly drawn) [Compound 1072, propyl (((2-(((3S,6S,9aS)-3-(3-(4-((S)-2-(methoxymethyl)azetidin-1-yl)pyrimidin-5-yl)azetidine-1-carbonyl)-5-oxooctahydro-1H-pyrrolo[1,2-a]azepin-6-yl)carbamoyl)benzo [b]thiophen-5-yl)methyl)(phenoxy)phosphoryl)-L-alaninate] was tested. Which IC50 did it give?
Answer: < 100 nM

Question: With `COc1ccncc1C1CN(C(=O)[C@@H]2CC[C@@H]3CCC[C@H](NC(=O)c4cc5cc([C@H](F)[P@@](=O)(N[C@@H](C)C(=O)OCc6ccccc6)Oc6ccccc6)ccc5s4)C(=O)N32)C1` (single isomer, unassigned) [Compound 1050] as the molecule, how does the IC50 read?
Answer: 100 to 1000 nM

Question: For `CCCOC(=O)[C@H](C)N[P@](=O)(Oc1ccccc1)[C@@H](F)c1ccc2sc(C(=O)N[C@H]3CCC[C@H]4CC[C@@H](C(=O)N5CC(c6cccnc6)C5)N4C3=O)cc2c1` (single isomer, unassigned) [Compound 446], which IC50 is on record?
Answer: < 100 nM

Question: `CCCOC(=O)[C@H](C)NP(=O)(Cc1ccc2sc(C(=O)N[C@H]3CC[C@H](C)C[C@H]4CC[C@@H](C(=O)N5CC(c6cnccc6F)C5)N4C3=O)cc2c1)Oc1ccccc1` (stereo partly drawn) [Compound 993, propyl (((2-(((3S,6S,9S,10aR)-3-(3-(4-fluoropyridin-3-yl)azetidine-1-carbonyl)-9-methyl-5-oxodecahydropyrrolo [1,2-a]azocin-6-yl)carbamoyl)benzo [b]thiophen-5-yl)methyl)(phenoxy)phosphoryl)-L-alaninate] was tested. Which IC50 did it give?
Answer: < 100 nM

Question: For `CCCOC(=O)[C@H](C)NP(=O)(Cc1ccc2sc(C(=O)N[C@H]3CCC[C@H]4CC[C@@H](C(=O)N5CC(c6cn(C)ccc6=O)C5)N4C3=O)cc2c1)Oc1ccccc1` (stereo partly drawn) [Compound 979, propyl (((2-(((3S,6S,9aS)-3-(3-(1-methyl-4-oxo-1,4-dihydropyridin-3-yl)azetidine-1-carbonyl)-5-oxooctahydro-1H-pyrrolo[1,2-a]azepin-6-yl)carbamoyl)benzo [b]thiophen-5-yl)methyl)(phenoxy)phosphoryl)-L-alaninate], which IC50 is on record?
Answer: > 3000 nM

Question: Which IC50 does the source give for `CCOC(=O)[C@@H](NP(=O)(Cc1ccc2sc(C(=O)N[C@H]3CCC[C@H]4CC[C@@H](C(=O)N5CC(c6cccnc6)C5)N4C3=O)cc2c1)Oc1ccccc1)C(C)C` (stereo partly drawn) [Compound 949, ethyl (((2-(((3S,6S,9aS)-5-oxo-3-(3-(pyridin-3-yl)azetidine-1-carbonyl)octahydro-1H-pyrrolo[1,2-a]azepin-6-yl)carbamoyl)benzo [b]thiophen-5-yl)methyl) (phenoxy)phosphoryl)-L-valinate] here?
Answer: 1000 to 3000 nM

Question: With `CCCOC(=O)[C@H](C)N[P@](=O)(Oc1ccccc1)[C@H](F)c1ccc2sc(C(=O)N[C@H]3CCC[C@H]4CC[C@@H](C(=O)N5CC(c6cnccc6N(C)C)C5)N4C3=O)cc2c1` (stereo in doubt) [Compound 953] as the molecule, how does the IC50 read?
Answer: < 100 nM

same assay, conditions: STAT3, PBMC, compound 3 hrs, then 10 ng/mL IL-6 for 10 min; Table 115

Question: How did the IC50 turn out when `CCCOC(=O)C(C)(C)NP(=O)(Cc1ccc2sc(C(=O)N[C@H]3CCC[C@H]4CC[C@@H](C(=O)N5CC(c6cccnc6)C5)N4C3=O)cc2c1)Oc1ccccc1` (stereo partly drawn) [Compound 445, propyl 2-methyl-2-((((2-(((3S,6S,9aS)-5-oxo-3-(3-(pyridin-3-yl)azetidine-1-carbonyl)octahydro-1H-pyrrolo[1,2-a]azepin-6-yl)carbamoyl)benzo [b]thiophen-5-yl)methyl)(phenoxy)phosphoryl)amino) propanoate] was run?
Answer: < 100 nM
